Assay results from a melting point compilation (Tetko et al.; mined from patent text by program, amines drawn as free bases though some values may be those of a salt).

SMILES	melting point [°C]
CNC(=S)C1=CC(C)(C(F)(F)F)Oc2ccc([N+](=O)[O-])cc21 (stereo unspecified)	158 to 160
COc1ccc(CN2C(=O)c3c(-c4ccccc4Cl)cc4c(c3C2=O)c2cc(OC)ccc2n4CC(O)CO)c(OC)c1 (stereo unspecified)	151 to 156
O=C1NCC2(CCNCC2)O1	95 to 96
CSC1C(=O)Nc2cc(-c3ccccc3)ccc21 (stereo unspecified)	177 to 178
Oc1ccccc1-c1nc(-c2ccccc2O)n(CC(F)(F)F)n1	154 to 156
COC1OCC2C(=O)C3CCCCC3CC12 (stereo unspecified)	78 to 79
CC(=O)c1cc2c(c(CCl)c1O)CCCC2	88 to 90
CN1CC(c2cccc(Cl)c2)=C(c2ccc(S(C)(=O)=O)cc2)C1=O	170 to 172
O=[N+]([O-])c1cc2c(Nc3ccc(F)c(Cl)c3)ncnc2cc1OC1CCC1	235
COCOc1cc(OC)ccc1C(=O)c1ccc(OCc2nc(-c3ccccc3)oc2C)cc1	119 to 120
CC#Cc1ccc2[nH]c(C(=O)OCC)cc2c1	166 to 167
NC(=C[N+](=O)[O-])NCc1ccc(Cl)cc1	215 to 216
CCCCc1nc2ccccc2n1CC(=O)O	70 to 71
Cc1nc(N2CCOCC2)sc1C	122 to 123
CNS(=O)(=O)c1ccc(-c2c(Cl)nc(C(F)(F)F)nc2-c2ccc(S(C)(=O)=O)cc2)cc1	226 to 230
O=C(CCS)NC1(C(=O)O)CCCC1	127 to 128
Cn1c(CCNC(=O)C(F)(F)F)cc2ccccc21	124 to 126
CCOC(=O)C=Cc1ccncc1	64 to 66
CCOC(=O)C1=C(C)N2CCNC2=C(C(=O)OCC)C1c1cccc(C(=O)OCC)c1 (stereo unspecified)	149
N#Cc1ncccc1OC1SCC(O)C(O)C1O (stereo unspecified)	174
CC(=C(F)F)c1cn(-c2c(Cl)cc(C(F)(F)F)cc2Cl)nc1C#N	66 to 68
CCOC(=O)C1=C(C)Nc2nc(N3CCOCC3)nc(N3CCOCC3)c2C1c1cccs1 (stereo unspecified)	205
COc1cc2c(cc1C)CCC=C2c1ncc[nH]1	197 to 229
CCc1cn(C2CC(O)C(CNC(=O)C(C)Cc3c(Cl)cccc3Cl)O2)c(=O)[nH]c1=O (mixture of isomers)	194 to 197

SMILES	melting point [°C]
O=c1oc(-c2cc(C(F)(F)F)cc(C(F)(F)F)c2)ns1	61 to 62.5
c1ccc(-c2cc3n(n2)Cc2ccccc2-3)cc1	183 to 184
CCn1nc(-c2sc(N)nc2-c2ccccc2)ccc1=O	232 to 235
CCC(C)(C)c1ccc(Oc2cc(N)c(O)c([N+](=O)[O-])c2)c(C(C)(C)CC)c1	144 to 148
O=C(NCCCSc1cccnc1)c1cccs1	66 to 67
Cc1nc(N2CCN(CC(C)C)C2=O)sc1C(N)=O	212 to 215
COC(=O)c1nc(Br)cc(Br)c1OCc1ccccc1	75 to 76
CCOC(=O)CCCCCOc1ccc(C=O)cc1	33 to 35
CCc1cccc(C)c1C(=O)N[C@@H](Cc1ccc(-c2c(C(F)(F)F)cc(C)n(C)c2=O)cc1)C(=O)O	219 to 221
COC(=O)Cc1cc(NC(=O)OC(C)(C)C)c(N)cc1C#Cc1ccccc1	130
COC(=O)c1cc(CN=C=S)cc(CN=C=S)c1	67 to 69
Cc1c(-c2ccccc2)c(N2CC[C@H](N(C)C)C2)c2oc(N3CCOCC3)nc2c1C#N	215 to 217
C(=Cc1ccc2c(c1)Sc1ccccc1N2c1ccccc1)c1ccc(-c2ccc(C=Cc3ccc4c(c3)Sc3ccccc3N4c3ccccc3)cc2)cc1	278 to 290
O=C1COC(Nc2ccccc2)=C1C(=O)Nc1ccccc1	182 to 184
COc1ccc(C(C#Cc2ccccc2)CNC(=O)C(F)(F)F)cc1OC1CCCC1 (racemic)	143 to 145
Cc1c(C)c(N2CCN(c3ccc(C(F)(F)F)cc3)CC2)c(C)c2c1OC(C)(C)C2N1CCCC1 (stereo unspecified)	140 to 141
OCCSc1cccc2nccn12	99 to 100
CC(C)S(=O)(=O)c1ccc2[nH]nc(Nc3nccs3)c2c1	146 to 148
CCOC(=O)c1sc2cc(OCc3ccccc3)ccc2c1Cl	98 to 100
CCCNc1ncnc2c1ncn2Cc1c(F)cccc1Cl	166 to 167
COc1c(Cl)cc2c(Cl)nc(Cl)nc2c1OC	154 to 155
CCCCCCCCC#CCC#CCC#CCSCC(=O)NCC	59
COC(=O)C1=CCC(C#N)(c2ccc(OC)c(OC3CCCC3)c2)CC1 (stereo unspecified)	128 to 129
CC(Cc1c[nH]c2ccccc12)NC(=O)C=C1CCC(c2ccccc2)(N(C)C)CC1 (stereo unspecified)	184 to 187

SMILES	melting point [°C]
Cc1nc2c(N)nc3ccccc3c2n1CCCNS(C)(=O)=O	236 to 238
CSc1nc(C(C)(C)C)nn1C(=O)N(C)C	51 to 53
COc1ccc(N2CCN(c3c(C)c(C)c4c(c3C)C(O)(c3ccoc3)C(C)(C)O4)CC2)cc1 (stereo unspecified)	148 to 149
CN1CCn2nc(Nc3cc(-c4cccc(N5Cc6cc(N(C)C)ccc6C5=O)c4CO)cn(C)c3=O)cc2C1	148 to 150
c1ccc2[nH]c(Cc3ccncc3)nc2c1	185 to 186
CCCCCN1CCN(O)C1=O	60 to 61
CCOC(=O)CN1C(=O)C(=C(C)C)SC1=Nc1cc(-n2c(=O)cc(C(F)(F)F)n(C)c2=O)c(F)cc1Cl	67 to 80
Cc1c(O)c(=O)[nH]c2ccccc2c1=O	252
CC(=O)NC1C(OCc2ccccc2)OC(COCc2ccccc2)C(OCc2ccccc2)C1OCC(=O)O (stereo unspecified)	128 to 129
N#CCNC(=O)c1ccc(Cl)c(Cl)c1	144 to 145
COc1ccc2c(c1)c(CCO)c(C)n2Cc1ccc(Cl)cc1	113 to 115
Cc1cc(Br)cnc1CCCn1nnc2cc(Cc3cccnc3)cnc21	109 to 110
NC(=O)CNC(=O)c1cccc(-c2c(F)ccc3cc(Cc4cccc(C(F)(F)F)c4)sc23)c1	130 to 131
NS(=O)(=O)c1ccccc1OCC1CO1 (stereo unspecified)	132 to 133
O=c1cc(-c2ccc(O)c(F)c2)oc2ccc(CO)cc12	256 to 258
COc1cccc(NC(NC(C)C(C)(C)C)=C(C#N)S(=O)(=O)C(C)C)c1 (stereo unspecified)	59 to 62
Cc1cc(S(=O)(=O)Nc2cccc3ccccc23)c2c(C)ccc(C(C)C)cc1-2	140 to 142
COC(=O)C1=C(C)NC(C)=C(c2nc(CS(=O)(=O)Cc3ccccc3)no2)C1c1cccc([N+](=O)[O-])c1 (stereo unspecified)	227
CC(C)OC(=O)OCOC(=O)[C@H]1[C@@H]2CC[C@@](N)(C(=O)O)[C@@H]21	196 to 197
COc1ccc(-c2cn3c(n2)-c2ccccc2CC3)cc1	179 to 181
CC(C)(C)N(NC(=O)c1cncc(Br)c1)C(=O)c1ccc(Cl)cc1	193 to 197
COC(=O)Nc1nc2ccccc2n1C(=O)NCC1(C)CC(NC(=O)n2c(NC(=O)OC)nc3ccccc32)CC(C)(C)C1 (stereo unspecified)	82 to 83
O=C(Nc1cc(-c2c(-c3ccc(F)cc3)nc3cccnn23)ccn1)c1ccc(Cl)nc1	247 to 248
